Measured values: US10045998B2 (BASF SE, priority 2013, dated 2018)
Read-outs that look alike come from different tables or passages of the source.

Experiments:
[1] = Aqueous solubility in purified water, 24 h equilibration, HPLC; type: physicochemical; conditions: 25° C.; for Aqueous solubility S: 24 h equilibration, effective solubility of abiraterone acetate (corrected for formula mass), LOD ca. one microgram per ml
Protocol: (§1) The resulting suspension is equilibrated in a temperature-controlled Eppendorf Thermomixer Comfort shaker for 2 hours or 24 hours at 25° C. at a shaking rate of 700 rpm. After 2 hours, or 24 hours, the solid phases are recovered by filter centrifugation (0.22 μm PVDF membrane). Concentrations in the filtrate after 2 hours or 24 hours (i.e. saturated solution) are determined by HPLC using under conditions given in the below Table; limit of detection (LOD) is ca. one microgram per ml.
(§2) For the results in Table a), the medium is purified water.

[2] = Dynamic (water) vapour sorption (DVS), hygroscopicity; type: physicochemical; conditions: 25° C.
Protocol: DVS: Dynamic (water) vapour sorption (DVS) is performed with a SPS11-100n (“Sorptions Prüfsystem” moisture sorption instrument from Projekt Meβtechnik, Ulm, Germany, using about 20 mg of sample material in an aluminum pan with a change rate of 5% of total relative humidity per hour. Program starting value of 50% with equilibration for 2 hours, continuously lowering to 0%, equilibration (i.e. humidity kept constant), scanning from 0% to 95%, equilibration, scanning from 95% to 0%, equilibration, scanning from 0% to 95%, equilibration, and scanning to 50% relative humidity. Sample temp. 25° C.

[3] = recent publications; quick absorption of a small fraction of the dose; cited from earlier work
[4] = biopharmaceutics classification system; report EMA/CHMP/542871/2011; cited from earlier work
[5] = Solubility of abiraterone acetate in phosphate buffer and various amounts of organic acids; type: physicochemical; conditions: for solubility: thermodynamic from solid, read-out: Solubility S
Protocol: as §1, §2

[6] = pKa of the organic acid / coformer; cited from earlier work

O=C(O)/C=C\C(=O)O [Example 4, Maleic acid]
Aqueous solubility S [1]: 14.4 microgram/ml
pH of the saturated solution ([1]; after 24 h equilibration): 2.3

CC(=O)O[C@H]1CC[C@@]2(C)C(=CC[C@@H]3[C@@H]2CC[C@]2(C)C(c4cccnc4)=CC[C@@H]32)C1.O=C(O)CC(O)C(=O)O [Example 3]
maximum water up-take at 95% r.h. [2]: less than 4%
Aqueous solubility S [1]: 13.8 microgram/ml

CC(=O)O[C@H]1CC[C@@]2(C)C(=CC[C@@H]3[C@@H]2CC[C@]2(C)C(c4cccnc4)=CC[C@@H]32)C1 [Abiraterone acetate, (3β)-17-(3-pyridinyl)androsta-5,16-dien-3-yl acetate]
median peak concentration, time after dosing [3]: 2 h
Aqueous solubility S [1]: <LOD
BCS class [4]: class IV
solubility ([5]; pH 3.1, aqueous buffer, phosphate buffer, no acid added, 25° C.): 2 µg/mL
solubility ([5]; phosphate buffer with ascorbic acid, pH 2.4, aqueous buffer, phosphate buffer, ascorbic acid 0.5 mol/L, 25° C.): 33 µg/mL
solubility ([5]; phosphate buffer with ascorbic acid, pH 2.8, aqueous buffer, phosphate buffer, ascorbic acid 0.1 mol/L, 25° C.): 5 µg/mL
solubility ([5]; phosphate buffer with citric acid, 25 °C, pH 2.3, aqueous buffer): 14 µg/mL
pH ([5]; phosphate buffer, ascorbic acid 0.1 mol/L): 2.8
pH ([5]; phosphate buffer, ascorbic acid 0.5 mol/L): 2.4
pH ([5]; phosphate buffer, citric acid 0.5 mol/L): 2.3
pH ([5]; phosphate buffer, no acid added): 3.1

CC(=O)O[C@H]1CC[C@@]2(C)C(=CC[C@@H]3[C@@H]2CC[C@]2(C)C(c4cccnc4)=CC[C@@H]32)C1.COc1cc(C(=O)O)ccc1O [Example 8]
water up-take at 80% r.h. [2]: about 0.2%
maximum water up-take at 95% r.h. [2]: less than 0.4%

O=C(O)[C@H](O)[C@@H](O)C(=O)O [L-Tartaric acid, L-tartaric acid]
pKa [6]: L-Tartaric acid (2.95)

CC(=O)OC1CCC2(C)C(=CCC3C2CCC2(C)C(c4cccnc4)=CCC32)C1.O=C1NS(=O)(=O)c2ccccc21 (centres unmarked) [Example 6]
water up-take at 80% r.h. [2]: 0.1 to 0.2%
maximum water up-take at 95% r.h. [2]: less than 0.4%
